Data as given in patent publication US20240317748A1, “CARBONYL SUBSTITUTED DIAZASPIRO COMPOUNDS AND ITS USE” (BIONOVA PHARMACEUTICALS (SHANGHAI) LIMITED, priority 2021, published 2024).
Like-named read-outs stand apart in the source and are kept apart here.

Columns and labels:
Menin-MLL1 = target: T1, Menin-MLL1 (Homo sapiens, UniProt O00255); experiment: Menin-MLL1 inhibition assay (fluorescence polarization, Menin protein + FAM-MLL peptide); format: binding; conditions: Menin (2-610) isoform 2, FAM-labelled MLL peptide, mP readout; read-out: Biochemical assay Menin-MLL1 IC50
T1 construct: Menin (2-610) isform2; purchased ChemPartner 2020111101
T1 sequence (O00255 2-610): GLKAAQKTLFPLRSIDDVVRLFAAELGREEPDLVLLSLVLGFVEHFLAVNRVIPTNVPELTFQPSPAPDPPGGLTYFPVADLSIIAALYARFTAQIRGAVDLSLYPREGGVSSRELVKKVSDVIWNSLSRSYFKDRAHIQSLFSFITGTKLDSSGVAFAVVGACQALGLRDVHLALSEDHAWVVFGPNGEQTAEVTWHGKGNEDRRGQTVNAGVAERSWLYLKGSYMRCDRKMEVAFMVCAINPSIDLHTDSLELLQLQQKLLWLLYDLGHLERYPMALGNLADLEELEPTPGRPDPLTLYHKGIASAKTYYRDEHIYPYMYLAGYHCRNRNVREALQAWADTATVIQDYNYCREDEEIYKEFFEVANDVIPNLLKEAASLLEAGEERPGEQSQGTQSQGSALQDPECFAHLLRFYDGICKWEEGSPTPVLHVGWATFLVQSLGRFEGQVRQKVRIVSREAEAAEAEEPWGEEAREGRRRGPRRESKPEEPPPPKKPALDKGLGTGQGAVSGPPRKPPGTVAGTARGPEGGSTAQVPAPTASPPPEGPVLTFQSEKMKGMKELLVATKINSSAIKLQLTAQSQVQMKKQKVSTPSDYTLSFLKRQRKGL

MV-4-11 cells = experiment: Cell proliferation assay (CellTiter-Glo), MV-4-11; format: cell-based, human; conditions: MV-4-11 (MLL-AF4), 4 days incubation, read-out: Cell antiproliferation assay MV-4-11 IC50
In short: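 Antiproliferative activity by CellTiter-Glo luminescence; MV4-11 (MLL-AF4) in IMDM/10% FBS, 4 days; MOLM13 (MLL-AF9) in RPMI1640/20% FBS, 12 days; OCI-AML3 (NPM1c) in RPMI1640/20% FBS, 5 days; HL-60 (MLL wild-type control) in IMDM/20% FBS, 4 days. Compounds 4-fold serial from 2 mM stock, 200-fold final dilution; 37 °C, 5% CO2.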

hERG potassium channel = target: T2, hERG potassium channel (Homo sapiens, UniProt Q12809); experiment: hERG inhibition study (Qpatch, CHO-hERG cells); format: cell-based; conditions: highest test concentration 40 μM
T2 construct: expressed in transfected cells; host or cells: CHO-hERG cells
Procedure: The inhibition effects of the test compounds on hERG were carried out in CHO-hERG cells (cell density: 21.5×10˜6/mL). 10 μL compound mother liquor was added to 20 μL DMSO solution, and then continuously diluted to 6 concentrations by 3-fold. The compound solution (4 uL) of six different concentrations were added to the extracellular solution (996 uL) and diluted to the final concentration to be tested (250-fold dilution totally). The highest test concentration was 40.00 μM, followed by […], 13.3, 4.4, 1.48, 0.49 and 0.16 μM. […] The high impedance sealing of single cell and the formation of whole cell model were all completed automatically by Qpatch instrument.

[1] = Liver microsome stability study; format: in vitro ADME; conditions: human liver microsomes 0.5 mg/mL, 1 μM compound, NADPH, 37° C.; for half-life at 1 μM: read-out: Human liver microsome T1/2
Procedure: Studies were carried out in liver microsomes (Corning, 0.5 mg/mL). Stock solutions were prepared at 10 mM in DMSO for the test compounds. Aliquots of the stock solutions were diluted to 0.5 mM with acetonitrile, and then further diluted upon the addition of liver microsomes/buffer to 1.5 μM. An aliquot of 30 μL of 1.5 μM solutions was mixed with 15 μL of 6 mM NADPH and the final concentration of NADPH was 2 mM, which had been pre-warmed to 37° C. Test compounds and Ketanserin final concentrations were 1 μM. The plates were kept in a 37° C. water bath for the duration of the experiment. At each time point (0, 5, 15, 30, 45 minutes), 135 μL of acetonitrile was added into corresponding wells. After the final time point was quenched by acetonitrile, the assay plates were shaken at the vibrator (IKA, MTS 2/4) for 10 min (600 rpm/min) and then centrifuged at 5,594 g for 15 min (Thermo Multifuge×3R). Aliquots of the supernatant were taken, diluted 1:1 into distilled water, and analyzed by LC-MS/MS. The peak area response ratio to internal standard (PARR) of the compounds at 5, 15, 30, 45 minutes was compared to the PARR at time 0 to determine the percent of test compound remaining at each time point. Half-lives were calculated using Excel software, fitting to a single-phase exponential decay equation.

MOLM13 cells = experiment: Cell proliferation assay (CellTiter-Glo), MOLM13; format: cell-based, human; conditions: MOLM13 (MLL-AF9), 12 days incubation, read-out: Cell antiproliferation assay MOLM13 IC50
Procedure: (§1) The antiproliferative activity of test compounds was assessed in human leukemia cell lines. The cell line MV4-11, MOLM13 and OCI-AML3, which expresses the MLL fusion protein MLL-AF4, MLL-AF9 and carry the NPM1c gene mutation, respectively, were tested. HL-60 was used as a control cell line containing two MLL wildtype alleles in order to exclude compounds that display general cytotoxic effect. MV4-11 cells were cultured in IMDM supplemented with 10% FBS, MOLM13 and OCI-AML3 cells were cultured in RPMI1640 supplemented with 20% FBS, and HL-60 cells were cultured in IMDM supplemented with 20% FBS. Corresponding cells (MV4-11, MOLM13, OCI-AML3 or HL-60 cell line) were seeded in 100 uL medium per well in 96-well plate (white wall with clear bottom, tissue culture treated, Corning, Cat. No. CLS3903; Lot.No. 30419025). Plates were placed in the CO2 incubator overnight. Compounds solution (2 mM starting, 4-fold serial dilution) were prepared and added to the wells containing 100 μL of the culture medium with HPD300 according to the plate map and centrifuge at 1000 rpm for 1 minutes (200-fold dilution totally). MV4-11, MOLM13, OCI-AML3 and HL-60 cells were incubated with the compounds for 4, 12, 5 and 4 days, respectively, under 5% CO2 at 37° C., respectively. 100 μL of CellTiter-Glo reagent (Promega, Cat. No. G7573, Lot. No. 0000416710) was added to the assay plate by Multidrop Combi instrument, contents were mixed for 10 minutes on an orbital shaker to induce cell lysis. After incubation at room temperature for 10 mins, clear bottom with white back seal was pasted and luminescence with Envision was read.

OCI-AML3 cells = experiment: Cell proliferation assay (CellTiter-Glo), OCI-AML3; format: cell-based, human; conditions: OCI-AML3 (NPM1c mutation), 5 days incubation, read-out: Cell antiproliferation assay OCI-AML3 IC50
Procedure: as §1

HL-60 cells = experiment: Cell proliferation assay (CellTiter-Glo), HL-60 control line; format: cell-based, human; conditions: 4 days incubation; for IC50: HL-60 control line (MLL wildtype), read-out: Cell antiproliferation assay HL-60 IC50; for inhibition at 10 µM: read-out: HL-60 (Pct of inhibition at 10 μM)
Procedure: as §1

[2] = Homo sapiens, 96 h, HL-60 control line, 10 μM

T2 sequence (Q12809 whole entry): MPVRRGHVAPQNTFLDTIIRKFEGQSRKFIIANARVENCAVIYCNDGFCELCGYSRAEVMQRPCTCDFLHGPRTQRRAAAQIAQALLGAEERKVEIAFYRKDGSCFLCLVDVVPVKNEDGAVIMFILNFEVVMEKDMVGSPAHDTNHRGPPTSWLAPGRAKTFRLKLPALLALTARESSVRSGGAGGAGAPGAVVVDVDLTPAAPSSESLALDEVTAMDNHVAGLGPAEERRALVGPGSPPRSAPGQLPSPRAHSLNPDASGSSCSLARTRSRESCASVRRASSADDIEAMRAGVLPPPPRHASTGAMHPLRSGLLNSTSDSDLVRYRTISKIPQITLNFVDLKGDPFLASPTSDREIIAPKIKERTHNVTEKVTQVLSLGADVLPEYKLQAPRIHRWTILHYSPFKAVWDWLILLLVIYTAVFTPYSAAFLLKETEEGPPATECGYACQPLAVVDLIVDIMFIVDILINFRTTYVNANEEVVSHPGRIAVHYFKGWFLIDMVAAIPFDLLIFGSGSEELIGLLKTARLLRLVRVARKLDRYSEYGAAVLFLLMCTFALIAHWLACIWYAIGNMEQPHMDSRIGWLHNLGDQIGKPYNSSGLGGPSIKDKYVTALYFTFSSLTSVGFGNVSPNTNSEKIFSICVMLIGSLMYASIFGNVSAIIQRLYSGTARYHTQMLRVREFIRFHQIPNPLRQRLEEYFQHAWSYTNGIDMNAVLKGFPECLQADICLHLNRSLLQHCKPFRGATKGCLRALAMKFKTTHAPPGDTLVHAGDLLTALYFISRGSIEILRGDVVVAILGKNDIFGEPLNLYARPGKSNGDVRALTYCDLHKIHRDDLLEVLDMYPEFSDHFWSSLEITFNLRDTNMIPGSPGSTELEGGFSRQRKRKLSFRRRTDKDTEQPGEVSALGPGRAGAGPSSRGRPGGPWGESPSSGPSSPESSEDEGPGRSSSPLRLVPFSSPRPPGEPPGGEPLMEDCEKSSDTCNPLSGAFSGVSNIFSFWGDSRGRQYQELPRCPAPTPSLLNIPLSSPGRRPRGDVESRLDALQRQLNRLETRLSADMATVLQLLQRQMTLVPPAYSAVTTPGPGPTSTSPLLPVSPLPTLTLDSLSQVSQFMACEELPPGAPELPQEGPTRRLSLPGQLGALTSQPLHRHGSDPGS

| IC50 (Menin-MLL1) [nM] | IC50 (MV-4-11 cells) [nM] | Human liver microsome T1/2 [1] [h] | IC50 (MOLM13 cells) [nM] | IC50 (OCI-AML3 cells) [nM] | IC50 (HL-60 cells) [nM] | IC50 (MV-4-11 cells; Homo sapiens, MV4-11, 96 h) [nM] | half-life at 1 μM [1] [h] | IC50 (MOLM13 cells; Homo sapiens, MOLM-13, 288 h) [nM] | IC50 (OCI-AML3 cells; Homo sapiens, OCI-AML-3, 120 h) [nM] | IC50 (HL-60 cells; Homo sapiens, 96 h) [nM] | Compound | IC50 (hERG potassium channel) [nM] | HL-60 (Pct of inhibition at 10 μM) (HL-60 cells; HL-60 control line, 10 μM) [%] | inhibition at 10 µM (HL-60 cells; [2]) [%] |
| --- | --- | --- | --- | --- | --- | --- | --- | --- | --- | --- | --- | --- | --- | --- |
| 3.4 | 8 | 0.2 | 21.6 | 74.7 | 7970 | – | – | – | – | – | CCN(C(=O)c1cc(F)ccc1Oc1cncnc1N1CC2(CCN(C[C@H]3CC[C@H](NS(=O)(=O)CC)CC3)CC2)C1)C(C)C [SNDX-5613, reference compound] | 9600 | 98.9 | – |
| 2.3 | – | – | – | – | – | 14.2 | 2.65 | 61.9 | 186 | > 10000 | CCN(C(=O)c1cc(F)ccc1Oc1nncnc1N1CC2(CCN(C(=O)[C@H]3NC[C@@H]4C[C@@H]43)CC2)C1)C(C)C [Example 55] | > 40000 | – | -5 |
| 5.3 | – | – | – | – | – | 13 | 1.75 | 57.8 | 144 | > 10000 | CCN(C(=O)c1cc(F)ccc1Oc1nncnc1N1CC2(CCN(C(=O)[C@H]3NCC[C@@H]3C)CC2)C1)C(C)C [Example 57] | > 40000 | – | -16.4 |
